From patent US20240316047A1, “INHIBITORS OF RNA HELICASE DHX9 AND USES THEREOF” (ACCENT THERAPEUTICS, INC., priority 2022, published 2024)

Biological target: Human recombinant DHX9 protein (Homo sapiens (Human), UniProt Q08211)
Assay: DHX9 ATPase assay (ADP-Glo)
Assay type: biochemical
Conditions: for IC50: read-out: DHX9 Biochemical Inflection Point

Chain of Human recombinant DHX9 protein (Q08211 whole entry): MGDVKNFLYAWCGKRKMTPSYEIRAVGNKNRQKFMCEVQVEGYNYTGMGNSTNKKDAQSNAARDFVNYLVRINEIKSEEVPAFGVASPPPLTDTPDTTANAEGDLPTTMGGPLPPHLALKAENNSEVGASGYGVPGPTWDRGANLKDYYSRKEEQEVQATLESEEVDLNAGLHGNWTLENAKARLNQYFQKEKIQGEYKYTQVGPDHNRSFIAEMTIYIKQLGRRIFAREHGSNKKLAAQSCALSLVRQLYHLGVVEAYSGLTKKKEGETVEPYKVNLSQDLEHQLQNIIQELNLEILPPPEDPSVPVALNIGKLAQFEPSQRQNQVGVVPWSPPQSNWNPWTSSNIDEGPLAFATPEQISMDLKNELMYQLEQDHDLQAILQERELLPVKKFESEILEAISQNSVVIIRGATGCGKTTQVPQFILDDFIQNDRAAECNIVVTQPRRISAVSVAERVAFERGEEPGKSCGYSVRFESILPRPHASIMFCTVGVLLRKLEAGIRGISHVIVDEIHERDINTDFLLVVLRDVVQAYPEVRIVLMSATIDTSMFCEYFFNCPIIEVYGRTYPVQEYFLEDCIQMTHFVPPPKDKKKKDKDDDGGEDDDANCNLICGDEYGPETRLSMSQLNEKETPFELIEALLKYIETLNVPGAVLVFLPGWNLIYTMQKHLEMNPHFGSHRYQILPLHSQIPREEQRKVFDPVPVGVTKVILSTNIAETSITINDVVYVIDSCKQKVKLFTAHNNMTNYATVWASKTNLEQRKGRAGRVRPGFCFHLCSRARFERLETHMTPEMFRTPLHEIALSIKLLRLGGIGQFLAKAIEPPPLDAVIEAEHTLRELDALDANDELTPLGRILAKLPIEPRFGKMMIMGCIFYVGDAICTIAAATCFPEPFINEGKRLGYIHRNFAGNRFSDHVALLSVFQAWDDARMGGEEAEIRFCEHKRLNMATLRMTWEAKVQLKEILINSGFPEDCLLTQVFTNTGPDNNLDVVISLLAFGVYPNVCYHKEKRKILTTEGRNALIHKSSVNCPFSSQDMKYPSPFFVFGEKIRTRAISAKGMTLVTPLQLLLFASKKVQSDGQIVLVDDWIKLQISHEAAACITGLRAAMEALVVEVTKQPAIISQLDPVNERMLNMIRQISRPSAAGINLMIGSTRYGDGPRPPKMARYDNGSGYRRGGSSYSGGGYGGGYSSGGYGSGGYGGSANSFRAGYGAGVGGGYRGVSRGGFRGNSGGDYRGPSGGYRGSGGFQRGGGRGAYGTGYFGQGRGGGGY

Compound | DHX9 Biochemical Max Inhibition | IC50 [nM]
Cn1cc(C(=O)Nc2cc(Cl)cc(NS(C)(=O)=O)c2)cc1-c1ncccc1OCc1nccs1 [Example 279] | 73.2% | 4
CS(=O)(=O)Nc1cc(Br)cc(NC(=O)c2cc(-c3ccccc3O)cs2)c1 [Example 21] | 61.7% | 33.2
CS(=O)(=O)Nc1cc(Cl)cc(NC(=O)c2cnn(-c3ccc(S(C)(=O)=O)cn3)c2)c1 [Example 198] | 60.7% | 71.3
CS(=O)(=O)Nc1cc(Cl)cc(NC(=O)c2cnn(-c3ccc(N4CCOCC4=O)cn3)c2)c1 [Example 180] | 67.4% | 20.2
CS(=O)(=O)Nc1cc(Cl)cc(NC(=O)c2cc(-c3ccccc3)co2)c1 [Example 7] | 46.4% | 380
Cn1cc(C(=O)Nc2cc(Cl)cc(NS(C)(=O)=O)c2)cc1N1CCCCC1=O [Example 158, N-(3-chloro-5-(methylsulfonamido)phenyl)-1-methyl-5-(2-oxopiperidin-1-yl)-1H-pyrrole-3-carboxamide] | 76.5% | 34.5
Cc1cc(C(=O)Nc2cc(Cl)cc(NS(C)(=O)=O)c2)cn1-c1ccc(N2CCS(=O)(=O)CC2)cn1 [Example 285] | 70.6% | 5.4
CS(=O)(=O)Nc1cc(Cl)cc(NC(=O)c2cc(-c3ncccc3OCc3cccnc3)n(CC(F)(F)F)c2)c1 [Example 185] | 80.5% | 4.7
CC(Oc1cccnc1-n1cc(C(=O)Nc2cc(Cl)cc(NS(C)(=O)=O)c2)cn1)c1ccccc1 (centres unmarked) [Example 62] | 58.4% | 211
CS(=N)(=O)Nc1cc(Br)cc(NC(=O)c2cc(-c3ccccn3)cs2)c1 (centres unmarked) [Example 121, N-(3-bromo-5-(methylsulfonoamidimidamido)phenyl)-4-(pyridin-2-yl)thiophene-2-carboxamide] | 63.5% | 40.6
CS(=O)(=O)Nc1cc(F)cc(NC(=O)c2cc(Br)[nH]n2)c1 [Example 4] | 64.1% | 4820
Cc1ccc(OCc2cccc(F)c2)c(-n2cc(C(=O)Nc3cc(Cl)cc(NS(C)(=O)=O)c3)cn2)n1 [Example 204] | 68.9% | 9.6
CN1CCN(c2cnc(-n3cc(C(=O)Nc4cc(Cl)cc(NS(C)(=O)=O)c4)cn3)cn2)CC1=O [Example 184] | 66.3% | 19.4

Further lines, results first:

DHX9 Biochemical Max Inhibition | IC50 [nM] | Compound
58.5% | 132 | Cc1ccc2cc(C(=O)Nc3cc(Cl)cc(NS(C)(=O)=O)c3)cn2c1 [Example 300]
73.5 | 8.6 | CN1CCN(c2csc(C(=O)Nc3cc(Cl)cc(NS(C)(=O)=O)c3)c2)C1=O [Example 431]
73.6% | 33.1 | CCOc1cnc(-c2csc(C(=O)Nc3cc(Cl)cc(NS(C)(=O)=O)c3)c2)nc1 [Example 342]
83.4 | 10.9 | CN1C(=O)N(c2ccc(-c3cc(C(=O)Nc4cc(Cl)cc(NS(C)(=O)=O)c4)cn3C)nc2)C(=O)C1(C)C [Example 603]
67.1 | 96.5 | CS(=O)(=O)Nc1cc(Cl)cc(NC(=O)c2cc(-c3ncc(N4CC(C(F)(F)F)C4)cn3)n(CC(F)F)c2)c1 [Example 508]
66.6 | 18.2 | CC(C)(C)Oc1cnc(-c2cc(C(=O)Nc3cc(Cl)cc(NS(C)(=O)=O)c3)sc2CO)nc1 [Example 686]
66.1 | 68 | Cc1cc(C(=O)Nc2cc(Cl)cc(NS(C)(=O)=O)c2)cn1-c1ncc(OC(C)(C)C)cc1F [Example 662]
65.9 | 18.3 | Cn1cc(C(=O)Nc2cc(Cl)cc(NS(C)(=O)=O)c2)cc1-c1ccc(N2CCN(C(=O)C(C)(C)C)CC2)cn1 [Example 591]
55.9 | 26.9 | Cn1cc(C(=O)Nc2cc(Cl)cc(NS(C)(=O)=O)c2)cc1-c1ncc(N2CCC3(C2)CC3(F)F)cn1 (centres unmarked) [Example 494]
74.8 | 5.7 | COC(=O)N1CCN(c2cnc(-c3cc(C(=O)Nc4cc(Cl)cc(NS(C)(=O)=O)c4)cn3C)c(F)c2)CC1 [Example 464]
74 | 36.5 | Cc1noc(C)c1COc1cc(F)cnc1-c1cc(C(=O)Nc2cc(Cl)cc(NS(C)(=O)=O)c2)cn1C [Example 725]
61.5 | 16.2 | CCOc1cnc(-c2cc(C(=O)Nc3cc(Cl)cc(NS(C)(=O)=O)c3)sc2C)c(F)c1 [Example 456]
69.1 | 63.5 | CS(=O)(=O)Nc1cc(Cl)cc(NC(=O)c2cc(C(=O)N3CCOCC3)n(-c3ccccn3)c2)c1 [Example 731]
61.1 | 312 | Cc1sc(C(=O)Nc2cc(Cl)cc(NS(C)(=O)=O)c2)cc1-c1ncc(N2CC3C(C2)C3(C)C)cc1F (centres unmarked) [Example 476]
75.9 | 13.1 | Cc1sc(C(=O)Nc2cc(Cl)cc(NS(C)(=O)=O)c2)cc1-c1ncc(F)cc1-c1cncc(F)c1 [Example 607]
